Reference: publication PMC11968843, “Sulphostin-inspired N-phosphonopiperidones as selective covalent DPP8 and DPP9 inhibitors” (Nature Communications, 2025)
Where “and” joins values, the source holds several entries; their conditions need not be identical. Identical values can stand only once. Like-named read-outs stand apart in the source and are kept apart here.

What was measured:
Format in all cases: biochemical
DPP9 [1] = target: T1, DPP9 (Homo sapiens, UniProt Q86TI2); test: biochemical; set-up: purchased Proteros Biostructures GmbH, Germany; settings: for DPP9 activity [%]: replicates
T1 sequence (Q86TI2 whole entry): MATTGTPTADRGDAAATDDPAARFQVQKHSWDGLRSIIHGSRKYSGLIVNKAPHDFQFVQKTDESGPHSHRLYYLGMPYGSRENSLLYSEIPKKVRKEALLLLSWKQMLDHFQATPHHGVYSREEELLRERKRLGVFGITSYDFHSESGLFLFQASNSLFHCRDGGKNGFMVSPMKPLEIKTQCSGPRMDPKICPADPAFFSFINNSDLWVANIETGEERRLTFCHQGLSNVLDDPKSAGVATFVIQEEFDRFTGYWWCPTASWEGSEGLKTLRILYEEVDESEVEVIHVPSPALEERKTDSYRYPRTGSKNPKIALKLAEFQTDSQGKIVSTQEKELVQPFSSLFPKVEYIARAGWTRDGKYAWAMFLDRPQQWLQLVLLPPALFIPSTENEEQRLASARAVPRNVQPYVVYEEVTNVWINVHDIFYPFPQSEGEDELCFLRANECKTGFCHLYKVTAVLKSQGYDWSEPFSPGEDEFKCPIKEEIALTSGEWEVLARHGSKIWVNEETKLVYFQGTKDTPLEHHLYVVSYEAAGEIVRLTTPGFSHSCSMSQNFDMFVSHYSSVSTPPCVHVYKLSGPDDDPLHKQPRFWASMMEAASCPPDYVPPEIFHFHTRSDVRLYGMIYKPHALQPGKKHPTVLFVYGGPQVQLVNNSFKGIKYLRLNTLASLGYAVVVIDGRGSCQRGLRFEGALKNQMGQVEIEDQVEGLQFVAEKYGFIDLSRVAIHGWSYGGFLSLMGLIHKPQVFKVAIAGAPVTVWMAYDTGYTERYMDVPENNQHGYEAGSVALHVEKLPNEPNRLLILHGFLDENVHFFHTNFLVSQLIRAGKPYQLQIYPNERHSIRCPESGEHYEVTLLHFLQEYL
Summary of the method: (§1)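 Initial velocity of AMC release from fluorogenic GP-AMC substrate read for up to 60 min at 30 °C in HEPES/KOH pH 7.3 buffer with 1 mM DTT. Enzyme (10 nM) preincubated 45 min at 30 °C with inhibitor (0–100 μM, 1% DMSO). IC50 from four-parameter variable-slope fit of triplicates.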

DPP4 [2] = target: T2, DPP4 (Homo sapiens, UniProt P27487)
T2 construct: purchased Proteros Biostructures GmbH, Germany
T2 sequence (P27487 whole entry): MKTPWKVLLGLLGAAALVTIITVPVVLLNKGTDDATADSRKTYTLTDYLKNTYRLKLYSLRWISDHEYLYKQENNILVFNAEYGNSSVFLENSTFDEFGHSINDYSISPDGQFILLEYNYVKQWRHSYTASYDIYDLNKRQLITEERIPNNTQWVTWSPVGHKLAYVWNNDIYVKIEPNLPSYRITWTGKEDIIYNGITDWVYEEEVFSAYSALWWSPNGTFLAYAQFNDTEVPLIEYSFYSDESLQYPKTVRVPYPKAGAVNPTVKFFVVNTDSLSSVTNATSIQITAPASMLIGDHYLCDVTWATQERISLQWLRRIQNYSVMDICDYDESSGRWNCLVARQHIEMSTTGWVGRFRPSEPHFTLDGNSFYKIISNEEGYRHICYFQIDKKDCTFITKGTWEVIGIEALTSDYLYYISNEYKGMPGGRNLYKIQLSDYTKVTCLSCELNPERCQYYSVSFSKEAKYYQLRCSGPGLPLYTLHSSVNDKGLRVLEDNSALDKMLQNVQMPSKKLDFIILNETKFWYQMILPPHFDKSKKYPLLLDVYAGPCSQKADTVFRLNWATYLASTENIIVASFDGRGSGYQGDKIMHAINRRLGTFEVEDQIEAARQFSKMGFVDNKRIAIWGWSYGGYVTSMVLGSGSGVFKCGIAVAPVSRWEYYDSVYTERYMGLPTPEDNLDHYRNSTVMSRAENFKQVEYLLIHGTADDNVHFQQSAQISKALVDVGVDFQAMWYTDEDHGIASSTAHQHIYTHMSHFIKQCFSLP
Description: To calculate the reaction rate of covalent bond formation between DPP proteins and inhibitor, kinact, KI and kapp was determined as previously described[30],[51]. […] Enzyme activity was measured for a maximum of 120 min at 30 °C, and fluorescence intensities were then plotted against time. Data was fitted to the following equation: Y=(vi/kobs)*(1−exp(−kobs*X)) using Graph-Pad Prism v10.2.3. The obtained pseudo-first-order rate constant was used to determine the maximum enzyme inhibition rate (kinact) and binding affinity (KI) by fitting the plot of kobs against inhibitor concentration to the following equation: Y=kinact/1+(KI/[I]) . The efficiency of covalent bond formation (kapp) was calculated by the ratio of kinact/KI. All measurements were performed in triplicates and error bars represent standard errors of the fit.

DPP8 [3] = target: T3, DPP8 (Homo sapiens, UniProt Q6V1X1); test: biochemical
T3 construct: purchased Proteros Biostructures GmbH, Germany
T3 sequence (Q6V1X1 whole entry): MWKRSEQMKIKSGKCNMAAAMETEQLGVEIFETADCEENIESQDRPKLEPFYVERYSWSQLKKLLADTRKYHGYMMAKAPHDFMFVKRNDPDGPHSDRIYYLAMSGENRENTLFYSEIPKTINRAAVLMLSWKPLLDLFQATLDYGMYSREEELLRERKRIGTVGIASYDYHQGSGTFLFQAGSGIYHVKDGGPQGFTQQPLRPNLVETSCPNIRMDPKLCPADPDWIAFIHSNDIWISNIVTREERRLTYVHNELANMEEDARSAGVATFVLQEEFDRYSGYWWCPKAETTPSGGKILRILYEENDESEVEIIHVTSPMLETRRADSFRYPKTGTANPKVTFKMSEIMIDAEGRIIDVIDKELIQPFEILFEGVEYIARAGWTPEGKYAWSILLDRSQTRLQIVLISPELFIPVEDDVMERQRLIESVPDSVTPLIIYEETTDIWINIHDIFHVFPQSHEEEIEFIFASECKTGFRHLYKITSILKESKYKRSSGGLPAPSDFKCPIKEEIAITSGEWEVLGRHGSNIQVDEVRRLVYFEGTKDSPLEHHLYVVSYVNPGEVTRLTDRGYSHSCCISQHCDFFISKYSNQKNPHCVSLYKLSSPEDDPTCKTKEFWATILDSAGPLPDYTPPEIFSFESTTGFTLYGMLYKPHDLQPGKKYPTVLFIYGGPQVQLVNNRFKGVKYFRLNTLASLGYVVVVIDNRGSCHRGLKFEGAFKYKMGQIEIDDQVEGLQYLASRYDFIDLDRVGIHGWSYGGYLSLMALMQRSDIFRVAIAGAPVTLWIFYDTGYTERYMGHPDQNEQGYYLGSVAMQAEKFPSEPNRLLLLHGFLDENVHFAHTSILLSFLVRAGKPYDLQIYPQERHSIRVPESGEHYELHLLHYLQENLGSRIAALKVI
Summary of the method: as §1

DPP4 [4] = target: T2, DPP4; test: biochemical; settings: for DPP4 activity [%]: replicates
Summary of the method: as §1

DPP9 [5] = target: T1, DPP9; test: Time-dependent DPP9 inhibition kinetics (kobs, KI, kinact, kapp); set-up: purchased Proteros Biostructures GmbH, Germany
Summary of the method: (§2)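 Enzyme (10 nM) received 250 µM GP-AMC together with serially diluted inhibitor, and fluorescence was followed for up to 120 min at 30 °C. Progress curves were fitted for kobs, and kobs versus [I] gave kinact and KI. kapp = kinact/KI; triplicates, errors are standard errors of the fit.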

DPP8 [6] = target: T3, DPP8; test: Time-dependent DPP8 inhibition kinetics (kobs, KI, kinact, kapp)
Summary of the method: as §2

[7] = irreversible inhibition, fit of kobs vs inhibitor concentration

CCCCCc1ccc(SCCP(=O)(OCC)N2CCC[C@H](N)C2=O)cc1.O=C(O)C(F)(F)F (stereo partly drawn) [Compound 16] was tested, and the IC50 (DPP9 [1]; GP-AMC 250 µM, 10 nM enzyme, 45 min pre-incubation at 30 °C, read-out: IC50 DPP9) was 0.298 ± 0.021 µM, the “DPP9 activity [%]” value (DPP9 [1]; c 15.625 nM) was 90.8881% and 85.3617% and 82.8729% and the “DPP9 activity [%]” value (DPP9 [1]; c 31.25 nM) was 91.5419% and 83.379% and 89.0951%. The “DPP9 activity [%]” value (DPP9 [1]; c 62.5 nM) was 100.148% and 96.4776% and 87.1335%, the “DPP9 activity [%]” value (DPP9 [1]; c 156.25 nM) was 75.5857% and 64.6658% and 62.3826% and the “DPP9 activity [%]” value (DPP9 [1]; c 250 nM) was 60.7045% and 50.2004% and 47.0576%. The “DPP9 activity [%]” value (DPP9 [1]; c 312.5 nM) was 47.5512% and 45.1489% and 49.4375%, the “DPP9 activity [%]” value (DPP9 [1]; c 500 nM) was 25.3111% and 25.3533% and 24.7205% and the “DPP9 activity [%]” value (DPP9 [1]; c 625 nM) was 28.2131% and 30.5361% and 23.7856%. The “DPP9 activity [%]” value (DPP9 [1]; c 1000 nM) was 10.0823% and 10.3775% and 12.2759%, the “DPP9 activity [%]” value (DPP9 [1]; c 2500 nM) was 5.122% and 5.281% and 6.135% and the “DPP9 activity [%]” value (DPP9 [1]; c 5000 nM) was 3.4348% and 3.693% and 4.11%. For the same molecule, the “DPP9 activity [%]” value (DPP9 [1]; c 10000 nM) was 2.0053% and 1.966% and 1.707%, the “kobs DPP4” value (DPP4 [2]; c 250 µM) was 0.003317 s⁻¹ and the “kobs DPP4” value (DPP4 [2]; c 1000 µM) was 0.006797 s⁻¹. For the same molecule, the “kinact DPP4” value (DPP4 [2]; [7]) was 0.01027 s⁻¹, the “kapp DPP4” value (DPP4 [2]; ratio kinact/KI) was 20 M⁻¹ s⁻¹ and the KI (inactivation) (DPP4 [2]; source data, read-out: KI [M] best fit DPP4) was 0.000512 M. For the same molecule, the IC50 (DPP8 [3]; GP-AMC 250 µM, 10 nM enzyme, 45 min pre-incubation at 30 °C, read-out: IC50 DPP8) was 0.014 ± 0.001 µM, the “DPP8 activity [%]” value (DPP8 [3]; c 15.625 nM, replicates) was 42.4788% and 41.4194% and 46.9279% and the “DPP8 activity [%]” value (DPP8 [3]; c 25 nM, replicates) was 28.7129% and 21.6298% and 23.9147%. The “DPP8 activity [%]” value (DPP8 [3]; c 31.25 nM, replicates) was 25% and 29.6611% and 26.8008%, the “DPP8 activity [%]” value (DPP8 [3]; c 50 nM, replicates) was 11.5004% and 14.9276% and 11.5003% and the “DPP8 activity [%]” value (DPP8 [3]; c 62.5 nM, replicates) was 11.5466% and 15.9958% and 12.9237%. The “DPP8 activity [%]” value (DPP8 [3]; c 100 nM, replicates) was 5.331% and 3.808% and 3.884%, the “DPP8 activity [%]” value (DPP8 [3]; c 250 nM, replicates) was 4.449% (2×) and 5.085% and the “DPP8 activity [%]” value (DPP8 [3]; c 500 nM, replicates) was 3.39% and 4.449% and 3.1779%. The “DPP8 activity [%]” value (DPP8 [3]; c 1000 nM, replicates) was 3.496% and 1.907% and 2.6483%, the “DPP8 activity [%]” value (DPP8 [3]; c = 1.5625 nM inhibitor, individual replicates) was 85.6817% and 91.6222% and 85.0724% and the “DPP8 activity [%]” value (DPP8 [3]; c = 3.125 nM inhibitor, individual replicates) was 102.513% and 82.8637% and 92.1555%. The “DPP8 activity [%]” value (DPP8 [3]; c = 6.25 nM inhibitor, individual replicates) was 73.0388% and 69.9924% and 75.3236%, the “DPP8 vs. DPP9 selectivity” value (DPP8 [3]; from IC50 values) was ~ 21 fold and the “selectivity of DPP8 inhibition over DPP4” value (DPP8 [3]; from IC50 values) was ~ 1154 fold. For the same molecule, the IC50 (DPP4 [4]; GP-AMC 250 µM, 10 nM enzyme, 45 min pre-incubation at 30 °C, read-out: IC50 DPP4) was 16.1 µM, the “DPP4 activity [%]” value (DPP4 [4]; c 15.625 nM) was 93.2714% and 107.175% and 106.746% and the “DPP4 activity [%]” value (DPP4 [4]; c 31.25 nM) was 98.0992% and 97.1086% and 101.856%. The “DPP4 activity [%]” value (DPP4 [4]; c 62.5 nM) was 102.891% and 92.9769% and 100.41%, the “DPP4 activity [%]” value (DPP4 [4]; c 250 nM) was 99.4378% and 98.9828% and 107.906% and the “DPP4 activity [%]” value (DPP4 [4]; c 500 nM) was 104.087% and 100.437% and 100.482%. The “DPP4 activity [%]” value (DPP4 [4]; c 1000 nM) was 94.3422% and 97.3674% and 95.7968%, the “DPP4 activity [%]” value (DPP4 [4]; c 1562.5 nM) was 95.896% and 97.1752% and 96.7627% and the “DPP4 activity [%]” value (DPP4 [4]; c 3125 nM) was 92.5869% and 89.2118% and 84.6321%. For the same molecule, the “DPP4 activity [%]” value (DPP4 [4]; c 6250 nM) was 85.4573% and 71.7259% and 79.6149%, the “DPP4 activity [%]” value (DPP4 [4]; c 25000 nM) was 32.8097% and 29.6905% and 29.938% and the “DPP4 activity [%]” value (DPP4 [4]; c 50000 nM) was 6.082% and 4.679% and 4.407%. The “DPP4 activity [%]” value (DPP4 [4]; c 100000 nM) was 0.3548% and 1.386% and 0.7592%, the “kobs DPP9” value (DPP9 [5]; c 0.0625 µM) was 0.0001274 s⁻¹ and the “kobs DPP9” value (DPP9 [5]; c 0.25 µM) was 0.0002545 s⁻¹. For the same molecule, the “kobs DPP9” value (DPP9 [5]; c 1 µM) was 0.0004155 s⁻¹, the “kinact DPP9” value (DPP9 [5]; [7]) was 0.0005 ± 0.00007 s⁻¹ and the KI (inactivation) (DPP9 [5]; irreversible inhibition, fit of kobs vs inhibitor concentration, read-out: KI DPP9) was 2.16e-07 ± 9e-08 M. For the same molecule, the KI (inactivation) (DPP9 [5]; source data, read-out: KI [M] best fit DPP9) was 2.16e-07 M, the “kobs DPP8” value (DPP8 [6]; c 0.003125 µM) was 7.927e-05 s⁻¹ and the “kobs DPP8” value (DPP8 [6]; c 0.025 µM) was 0.0001486 s⁻¹. For the same molecule, the “kinact DPP8” value (DPP8 [6]; [7]) was 0.00018 s⁻¹, the KI (inactivation) (DPP8 [6]; irreversible inhibition, fit of kobs vs inhibitor concentration, read-out: KI DPP8) was 4e-09 ± 2e-09 M and the KI (inactivation) (DPP8 [6]; source data, read-out: KI [M] best fit DPP8) was 3.53e-09 M.
